pIC50: −log10 of the molar value. Residues, ends and D or L forms follow the SMILES beside them.
How the values were obtained:
HLA-A1102 = target: T1, HLA-A1102 (Homo sapiens, UniProt P04439, A114D/D185E/E176A/E43K/F33Y/L180Q/S129P/T187R); experiment: Peptide competitive binding assay, transfected HMy2.CIR cells, reference ATFQFK(FITC)VER; conditions: for inhibition at 5 µM / inhibition at 15 µM: HLA-A1102 HMy2.CIR cells, 24 hours, flow cytometry; for inhibition at 5 µM: competitor peptide 5μM, read-out: 5μM Inhibition (%); for inhibition at 15 µM: competitor peptide 15μM, read-out: 15μM Inhibition (%); for pIC50: read-out: Affinity
T1 construct: expressed in transfected cells; host or cells: HMy2.CIR
Summary of the method: (§1)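 HMy2.CIR cells stably transfected with each HLA-A allele were acid-stripped (citric acid/Na2HPO4, pH 3.3, 1 min), neutralized in IMDM with 0.5% BSA, then given β2-m (1 μg/mL) and unlabeled competitor plus the FITC reference peptide. FITC+ cells were measured by flow cytometry, and IC50 was taken from percent competition.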

HLA-A0301 = target: T2, HLA-A0301 (Homo sapiens, UniProt P04439); experiment: as above; conditions: for inhibition at 5 µM / inhibition at 15 µM: HLA-A0301 HMy2.CIR cells, 24 hours, flow cytometry; for inhibition at 5 µM: competitor peptide 5μM, read-out: 5μM Inhibition (%); for inhibition at 15 µM: competitor peptide 15μM, read-out: 15μM Inhibition (%); for pIC50: read-out: Affinity
T2 construct: expressed in transfected cells; host or cells: HMy2.CIR
Summary of the method: as §1

HLA-A1101 = target: T3, HLA-A1101 (Homo sapiens, UniProt P04439, A114D/D185E/E176A/F33Y/L180Q/S129P/T187R); experiment: cell-based; format: binding; conditions: for inhibition at 5 µM / inhibition at 15 µM: HLA-A1101 HMy2.CIR cells, 24 hours, flow cytometry; for inhibition at 5 µM: competitor peptide 5μM, read-out: 5μM Inhibition (%); for inhibition at 15 µM: competitor peptide 15μM, read-out: 15μM Inhibition (%)
T3 construct: expressed in transfected cells; host or cells: HMy2.CIR
Summary of the method: as §1

HLA-A0206 = target: T4, HLA-A0206 (Homo sapiens, UniProt P04439, D140Y/D185E/D98H/E176V/E277Q/F33Y/G131W/G231S/I119V/I121R/I166T/I218V/L300P/L318F/N151K/N90K/P208A/P217A/Q86G/Q94H/R138H/R169H/T345S); experiment: cell-based; format: binding; conditions: for inhibition at 5 µM / inhibition at 15 µM: HLA-A0206 HMy2.CIR cells, 24 hours, flow cytometry; for inhibition at 5 µM: competitor peptide 5μM, read-out: 5μM Inhibition (%); for inhibition at 15 µM: competitor peptide 15μM, read-out: 15μM Inhibition (%)
T4 construct: expressed in transfected cells; host or cells: HMy2.CIR
Summary of the method: as §1

[1] = tested on: twelve prevalent HLA-A allotypes; experiment: Peptide competitive binding assay, whole panel; parameters: species or system human; conditions: high = IC50<5μM
Experimental: A set of fluoresce-labeled reference peptides (positive-control peptide) were synthesized with a purity of >99% by Sangon Biotech and stored at 4°C, such as FLPSDK(FITC)FPSV for A0201, A0203 and A0206 ([30]), YVNVNK(FITC)GLK for A1101 and A3303 ([31]), EYLVSK(FITC)GVW for A2402 ([32]), ATFQFK(FITC)VER for A3101, A1102 and A0301 ([33]), KLPDDFK(FITC)GCV for A0207 ([34]), YLEPAK(FITC)AKY for A0101 ([30]), and ASRELK(FITC)VSY for A3001 (identified in house). Then the competitive peptide binding assay was performed as described with minor modifications ([30], [35]). Briefly, the HMy2.CIR cell lines expressing the indicated HLA-A molecule were washed with acid buffer (0.131M citric acid and 0.061M sodium phosphate Na2HPO4, PH3.3, 0.22 μm filtered) for 1 min, and immediately neutralized by IMDM medium containing 0.5% BSA. After washing, the cells were seeded into 96-well U culture plate (1×10^5 cells/100 μL/well) with β2-m (1 μg/mL). […] In parallel, no peptide control well (cells alone) and positive control well (cells with FITC-labeled reference peptide) were also performed.
The plate was centrifuged at 600 rpm for 5 min at room temperature (RT). Cells were washed twice with 100 μL cold 0.5% BSA-PBS. Finally, cells were resuspended with 150 μL PBS and analyzed with flow cytometry. Sample % is the percentage of FITC^+ cells in the experiment well, while the background % is the percentage of FITC^+ cells in the no peptide control well, and the max % is the percentage of FITC^+ cells in the positive control well. Competitive binding (%) = [1-(sample % - background %)/(max % – background %)] × 100%. […] Binding affinity of unlabeled peptide with the indicated HLA-A molecule is assessed by IC50.
Subsequently, the unlabeled epitope peptides of HBV competed with fluorescently labeled reference peptides in the binding with HLA-A molecules onto transfected cell lines for 24 hours. Here, twelve prevalent HLA-A allotypes were tested with totally 62 HBV epitope peptides validated in house.

HLA-A0201 = target: T5, HLA-A0201 (Homo sapiens, UniProt P04439, D140Y/D185E/D98H/E176V/E277Q/G131W/G231S/I119V/I121R/I166T/I218V/L300P/L318F/N151K/N90K/P208A/P217A/Q86G/Q94H/R138H/R169H/T345S); experiment: cell-based; format: binding; conditions: for inhibition at 5 µM / inhibition at 15 µM: HLA-A0201 HMy2.CIR cells, 24 hours, flow cytometry; for inhibition at 5 µM: competitor peptide 5μM, read-out: 5μM Inhibition (%); for inhibition at 15 µM: competitor peptide 15μM, read-out: 15μM Inhibition (%)
T5 construct: expressed in transfected cells; host or cells: HMy2.CIR
Summary of the method: as §1

HLA-A2402 = HLA-A2402 (Homo sapiens, UniProt P04439, D101N/D140Y/D185E/E176V/E190D/F33S/G103R/G107R/I119L/I121M/I306V/K335N/L105A/L180Q/L300P/N151K/N90K/Q86E/Q94H/R106L/R138H/R89G/T104I/T345S/V100E/W191G/Y123F); experiment: cell-based; format: binding
Summary of the method: as §1

HLA-A0203 = target: T6, HLA-A0203 (Homo sapiens, UniProt P04439, A173T/D140Y/D185E/D98H/E277Q/G131W/G231S/I119V/I121R/I166T/I218V/L180W/L300P/L318F/N151K/N90K/P208A/P217A/Q86G/Q94H/R138H/R169H/T345S); experiment: cell-based; format: binding
T6 construct: expressed in transfected cells; host or cells: HMy2.CIR
Summary of the method: as §1

HLA-A0207 = target: T7, HLA-A0207 (Homo sapiens, UniProt P04439, D140Y/D185E/D98H/E176V/E277Q/G131W/G231S/I119V/I121R/I166T/I218V/L300P/L318F/N151K/N90K/P208A/P217A/Q86G/Q94H/R138H/R169H/T345S/Y123C); experiment: cell-based; format: binding
T7 construct: expressed in transfected cells; host or cells: HMy2.CIR
Summary of the method: as §1

HLA-A3303 = target: T8, HLA-A3303 (Homo sapiens, UniProt P04439, A270S/D185E/E176V/E277Q/E87N/F33T/G231S/H175R/I121M/I218V/I322F/K168Q/L300P/L318F/M331R/P217A/Q86R/Q94H/R138Q/T323A/T345S/T97I/V358M); experiment: cell-based; format: binding
T8 construct: expressed in transfected cells; host or cells: HMy2.CIR
Summary of the method: as §1

Row | SMILES | inhibition at 5 µM (HLA-A1102) [%] | inhibition at 15 µM (HLA-A1102) [%] | inhibition at 5 µM (HLA-A0301) [%] | inhibition at 15 µM (HLA-A0301) [%] | inhibition at 5 µM (HLA-A1101) [%] | inhibition at 15 µM (HLA-A1101) [%] | inhibition at 5 µM (HLA-A0206) [%] | inhibition at 15 µM (HLA-A0206) [%] | number of HLA-A allotypes bound with high affinity [1] | pIC50 (HLA-A1102) | pIC50 (HLA-A0301) | pIC50 (HLA-A1101) | pIC50 (HLA-A0201) | inhibition at 5 µM (HLA-A0201) [%] | inhibition at 15 µM (HLA-A0201) [%] | also measured
1 | CSCC[C@H](NC(=O)[C@@H](N)CO)C(=O)N[C@@H](Cc1ccc(O)cc1)C(=O)N1CCC[C@H]1C(=O)N[C@@H](CO)C(=O)N[C@@H](CS)C(=O)N[C@@H](CS)C(=O)N[C@@H](CS)C(=O)N[C@H](C(=O)N[C@@H](CCCCN)C(=O)O)[C@@H](C)O [Epitope P13] (H-SMYPSCCCTK-OH; N-terminus and C-terminus assumed) | 54.7 | 73.1 | 79.8 | 80.7 | 79.5 | 83.9 | 12.1 | 10.2 | three | – | – | – | – | – | – | –
2 | CC(C)C[C@H](NC(=O)[C@@H](NC(=O)[C@H](CCC(N)=O)NC(=O)[C@H](Cc1c[nH]cn1)NC(=O)[C@H](C)NC(=O)[C@H](CC(N)=O)NC(=O)[C@@H](NC(=O)[C@@H](N)[C@@H](C)O)C(C)C)C(C)C)C(=O)N1CCC[C@H]1C(=O)N[C@@H](CCCCN)C(=O)O [Epitope P48] (H-TVNAHQVLPK-OH; N-terminus and C-terminus assumed) | 25.5 | 42.7 | 67.9 | 73.9 | 86 | 91 | – | – | two | < 4.82 | > 5.30 | > 5.30 | < 4.82 | 9.5 | 15 | –
3 | CC(C)C[C@H](NC(=O)[C@H](CC(N)=O)NC(=O)CNC(=O)[C@H](Cc1c[nH]cn1)NC(=O)[C@H](C)NC(=O)[C@H](CC(N)=O)NC(=O)[C@@H](NC(=O)[C@@H](N)[C@@H](C)O)C(C)C)C(=O)N1CCC[C@H]1C(=O)N[C@@H](CCCCN)C(=O)O [Epitope P47] (H-TVNAHGNLPK-OH; N-terminus and C-terminus assumed) | 24.7 | 44.2 | 65.8 | 78.1 | 78.3 | 90.3 | – | – | two | < 4.82 | > 5.30 | > 5.30 | < 4.82 | 7.2 | 12 | –
4 | CC(C)C[C@H](NC(=O)[C@@H](N)Cc1ccccc1)C(=O)N1CCC[C@H]1C(=O)N[C@@H](CO)C(=O)N[C@@H](CC(=O)O)C(=O)N[C@@H](Cc1ccccc1)C(=O)N[C@@H](Cc1ccccc1)C(=O)N1CCC[C@H]1C(=O)N[C@@H](CO)C(=O)O [Epitope P67] (H-FLPSDFFPS-OH; N-terminus and C-terminus assumed) | – | – | – | – | – | – | 95.7 | 100 | three | – | – | – | > 5.30 | 91.5 | 97.8 | pIC50 (HLA-A2402): < 4.82; inhibition at 5 µM (HLA-A2402; HLA-A2402 HMy2.CIR cells, competitor peptide 5μM, 24 hours, flow cytometry): 2%; inhibition at 15 µM (HLA-A2402; HLA-A2402 HMy2.CIR cells, competitor peptide 15μM, 24 hours, flow cytometry): 4.3%; pIC50 (HLA-A0206): > 5.30; pIC50 (HLA-A0203): > 5.30; inhibition at 5 µM (HLA-A0203; HLA-A0203 HMy2.CIR cells, competitor peptide 5μM, 24 hours, flow cytometry): 86.3%; inhibition at 15 µM (HLA-A0203; HLA-A0203 HMy2.CIR cells, competitor peptide 15μM, 24 hours, flow cytometry): 91.5%; pIC50 (HLA-A0207): < 4.82; inhibition at 5 µM (HLA-A0207; HLA-A0207 HMy2.CIR cells, competitor peptide 5μM, 24 hours, flow cytometry, read-out: 5μM Inhibition (%)): 42%; inhibition at 15 µM (HLA-A0207; HLA-A0207 HMy2.CIR cells, competitor peptide 15μM, 24 hours, flow cytometry, read-out: 15μM Inhibition (%)): 48%; pIC50 (HLA-A3303): < 4.82; inhibition at 5 µM (HLA-A3303; HLA-A3303 HMy2.CIR cells, competitor peptide 5μM, 24 hours, flow cytometry, read-out: 5μM Inhibition (%)): 0%; inhibition at 15 µM (HLA-A3303; HLA-A3303 HMy2.CIR cells, competitor peptide 15μM, 24 hours, flow cytometry, read-out: 15μM Inhibition (%)): 0%

— paper PMC9021956, “Screening and Identification of HBV Epitopes Restricted by Multiple Prevalent HLA-A Allotypes” (Frontiers in Immunology, 2022)
